According to patent publication US20070049564A1 (Wyeth, priority 2005, published 2007):
In brackets after ≈: the same amount, converted by molar mass. Like-named read-outs stand apart in the source and are kept apart here.

Assays:
E. coli GC 2231 = test: MIC, broth microdilution
E. coli GC 2232 = test: MIC, broth microdilution
E. coli GC 2272 = test: MIC, broth microdilution
E. coli GC 2203 = test: MIC, broth microdilution
P. aeruginosa GC 2214 = test: MIC, broth microdilution
S. aureus GC 1131 = test: MIC, broth microdilution
S. aureus GC 6466 = test: MIC, broth microdilution; conditions: Staphylococcus aureus, GC6466, pre-incubation in mouse serum
Protocol: Antimicrobial susceptibility testing. The in vitro activities of the antibiotics are determined by the broth microdilution method as recommended by the National Committee for Clinical Laboratory Standards (NCCLS) (1). Mueller-Hinton II broth (MHBII)(BBL Cockeysville, Md.) is the medium employed in the testing procedures. Microtiter plates containing serial dilutions of each antimicrobial agent are inoculated with each organism to yield the appropriate density (10^5 CFU/ml) in a 100 μl final volume. The plates are incubated for 18-22 hours at 35° C. in ambient air. […] Standard Pharmacological Test Procedures
Presented in Tables I-XIII are representative compounds of Formula I which were evaluated against a panel of 40 selected gram-positive and gram-negative bacteria strains by pre-incubation in water, mouse serum or human serum. Representative compounds were first incubated in mouse serum for an hour prior to the in vitro testing against a panel of selected gram-positive and gram-negative bacteria strains. All compounds were also pre-incubated in water for an hour prior to testing as control. Representative compounds of Formula I were incubated in human serum prior to MIC determination.

S. aureus GC 6467 = test: MIC, broth microdilution
S. aureus GC 4536 = test: MIC, broth microdilution
S. aureus GC 2216 = test: MIC, broth microdilution
S. epidermidis GC 4935 = test: MIC, broth microdilution
E. faecalis GC 2267 = test: MIC, broth microdilution
E. faecalis GC 2242 = test: MIC, broth microdilution
S. pneumoniae* GC 4465 = test: MIC, broth microdilution; conditions: Streptococcus pneumoniae, pre-incubation in mouse serum
S. pneumoniae+ GC 4465 = test: MIC, broth microdilution
Staph. aureus Smith = test: In vivo activity (oral, iv; ED50) against Staph. aureus Smith in mice
Protocol: Representative examples of compounds of Formula I were tested for the oral efficacy using S. aureus Smith in mice.

## CCCCN(CC(=O)Nc1cc(N(C)C)c2c(c1O)C(=O)C1=C(O)[C@]3(O)C(=O)C(C(N)=O)=C(O)[C@@H](N(C)C)C3CC1C2)C(=O)OCc1oc(=O)oc1C (stereo partly drawn) [Example 109, (5-methyl-2-oxo-1,3-dioxol-4-yl)methyl 2-{[(7S,10aS)-9-(aminocarbonyl)-4,7-bis(dimethylamino)-1,8,10a,11-tetrahydroxy-10,12-dioxo-5,5a,6,6a,7,10,10a,12-octahydrotetracen-2-yl]amino}-2-oxoethyl(butyl)carbamate]
E. coli GC 2231; Escherichia coli, GC2231, pre-incubation in mouse serum
  MIC: 0.5 µg/mL (≈ 0.674 µM)
E. coli GC 2231; Escherichia coli, GC2231, pre-incubation in water
  MIC: 1 µg/mL (≈ 1.35 µM)
E. coli GC 2231; pre-incubation in mouse serum
  MIC: 1 UG/ML
E. coli GC 2231; pre-incubation in water
  MIC: 2 UG/ML
E. coli GC 2232; Escherichia coli, GC2232, pre-incubation in mouse serum
  MIC: 0.5 µg/mL (≈ 0.674 µM)
E. coli GC 2232; Escherichia coli, GC2232, pre-incubation in water
  MIC: 1 µg/mL (≈ 1.35 µM)
E. coli GC 2232; pre-incubation in water
  MIC: 2 UG/ML
E. coli GC 2272; Escherichia coli, GC2272, pre-incubation in mouse serum
  MIC: 0.25 µg/mL (≈ 0.337 µM)
E. coli GC 2272; pre-incubation in mouse serum
  MIC: 0.50 UG/ML
E. coli GC 2203; Escherichia coli, GC2203, pre-incubation in mouse serum
  MIC: 0.5 µg/mL (≈ 0.674 µM)
E. coli GC 2203; Escherichia coli, GC2203, pre-incubation in water
  MIC: 1 µg/mL (≈ 1.35 µM)
E. coli GC 2203; pre-incubation in water
  MIC: 2 UG/ML
P. aeruginosa GC 2214; Pseudomonas aeruginosa, GC2214, pre-incubation in mouse serum
  MIC: 16 µg/mL (≈ 21.6 µM)
P. aeruginosa GC 2214; Pseudomonas aeruginosa, GC2214, pre-incubation in water
  MIC: > 64 µg/mL
P. aeruginosa GC 2214; pre-incubation in mouse serum
  MIC: 32 UG/ML
S. aureus GC 1131; Staphylococcus aureus, GC1131, pre-incubation in mouse serum
  MIC: 1 µg/mL (≈ 1.35 µM)
S. aureus GC 1131; Staphylococcus aureus, GC1131, pre-incubation in water
  MIC: 2 µg/mL (≈ 2.7 µM)
S. aureus GC 1131; pre-incubation in water
  MIC: 4 UG/ML
S. aureus GC 6466
  MIC: 0.5 µg/mL (≈ 0.674 µM)
S. aureus GC 6467; Staphylococcus aureus, GC6467, pre-incubation in mouse serum
  MIC: 2 µg/mL (≈ 2.7 µM)
S. aureus GC 6467; Staphylococcus aureus, GC6467, pre-incubation in water
  MIC: 4 µg/mL (≈ 5.39 µM)
S. aureus GC 6467; pre-incubation in water
  MIC: 8 UG/ML
S. aureus GC 4536; Staphylococcus aureus, GC4536, pre-incubation in mouse serum
  MIC: 1 µg/mL (≈ 1.35 µM)
S. aureus GC 4536; Staphylococcus aureus, GC4536, pre-incubation in water
  MIC: 2 µg/mL (≈ 2.7 µM)
S. aureus GC 4536; pre-incubation in water
  MIC: 4 UG/ML
S. aureus GC 2216; Staphylococcus aureus, GC2216, pre-incubation in mouse serum
  MIC: 1 µg/mL (≈ 1.35 µM)
S. aureus GC 2216; pre-incubation in mouse serum
  MIC: 0.50 UG/ML
S. epidermidis GC 4935; Staphylococcus epidermidis, GC4935, pre-incubation in mouse serum
  MIC: 2 µg/mL (≈ 2.7 µM)
S. epidermidis GC 4935; Staphylococcus epidermidis, GC4935, pre-incubation in water
  MIC: 4 µg/mL (≈ 5.39 µM)
S. epidermidis GC 4935; pre-incubation in water
  MIC: 8 UG/ML
E. faecalis GC 2267; Enterococcus faecalis, GC2267, pre-incubation in mouse serum
  MIC: 1 µg/mL (≈ 1.35 µM)
E. faecalis GC 2267; Enterococcus faecalis, GC2267, pre-incubation in water
  MIC: 2 µg/mL (≈ 2.7 µM)
E. faecalis GC 2267; pre-incubation in water
  MIC: 4 UG/ML
E. faecalis GC 2242; Enterococcus faecalis, GC2242, pre-incubation in mouse serum
  MIC: 1 µg/mL (≈ 1.35 µM)
E. faecalis GC 2242; Enterococcus faecalis, GC2242, pre-incubation in water
  MIC: 1 µg/mL (≈ 1.35 µM)
E. faecalis GC 2242; pre-incubation in water
  MIC: 2 UG/ML
S. pneumoniae* GC 4465
  MIC: < 0.06 µg/mL
S. pneumoniae+ GC 4465; Streptococcus pneumoniae, pre-incubation in mouse serum
  MIC: 1 µg/mL (≈ 1.35 µM)
S. pneumoniae+ GC 4465; Streptococcus pneumoniae, pre-incubation in water
  MIC: 1 µg/mL (≈ 1.35 µM)
S. pneumoniae+ GC 4465; pre-incubation in water
  MIC: 2 UG/ML
Staph. aureus Smith; Staphylococcus aureus, in Mus musculus, po, read-out: ED50 Staph Smith SOD
  ED50: 19.9 mg/kg
Staph. aureus Smith; iv, read-out: ED50 Staph Smith SIV
  ED50: 0.76 mg/kg
